From Sander's compilation of Henry's law constants (doi:10.1021/es00047a026)

assay: Henry solubility constant Hcp at 298.15 K (mol/(m3 Pa)); conditions: reference: Hoff et al. (1993)

With `CC(C)=O` [propanone] as the compound, how does the “Henry solubility constant Hcp” value read?
The value was 0.27.

Which “Henry solubility constant Hcp” value does the source give for `Clc1ccccc1` [chlorobenzene] here?
The value was 0.0026.

With `ClCCl` [dichloromethane] as the compound, how does the “Henry solubility constant Hcp” value read?
Its value is 0.0041.

With `Clc1cccc(Cl)c1` [1,3-dichlorobenzene] as the compound, how does the “Henry solubility constant Hcp” value read?
Its value is 0.0034.

Which “Henry solubility constant Hcp” value does the source give for `ClC=C(Cl)Cl` [trichloroethene] here?
The value was 0.0011.

For `Cc1ccccc1` [methylbenzene], which “Henry solubility constant Hcp” value is on record?
The value was 0.0013.

With `c1ccccc1` [benzene] as the compound, how does the “Henry solubility constant Hcp” value read?
Its value is 0.0017.

Which “Henry solubility constant Hcp” value does the source give for `ClC(Cl)(Cl)Cl` [tetrachloromethane] here?
The value was 0.00036.

With `ClC(Cl)=C(Cl)Cl` [tetrachloroethene] as the compound, how does the “Henry solubility constant Hcp” value read?
Its value is 0.00063.

With `CC(Cl)(Cl)Cl` [1,1,1-trichloroethane] as the compound, how does the “Henry solubility constant Hcp” value read?
The value was 0.00053.
